Target: recombinant DYRK1A kinase (Homo sapiens (Human), UniProt Q13627)
Assay: DYRK1A kinase assay (Ser/Thr 18 peptide Z-lyte FRET)
Format: biochemical
Conditions: DYRK1A kinase activity, Z-lyte Ser/Thr 18 peptide, 15 μM ATP; method text calls the value IC50; read-out: EC50 (the source's name)
In short: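 IC50 from non-linear fits of percent phosphorylation, derived from coumarin/fluorescein emission ratio after 1 h protease development. Kinase reaction: 1 h room temperature, 15 μM ATP, 4 μM Ser/Thr peptide 18, 0.25 μg/mL recombinant DYRK1A, duplicate 11-point 1:3 dilutions from 10 μM.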

| Structure (SMILES) | IC50 [nM] |
| --- | --- |
| COc1nc(N[C@H](C)c2ccccn2)nn2ccc(-c3ccn4nccc4c3)c12 [Compound 93, (R)-4-Methoxy-5-(pyrazolo[1,5-a]pyridin-5-yl)-N-(1-(pyridin-2-yl)ethyl)pyrrolo[2,1-f][1,2,4]triazin-2-amine] | 194 |
| COc1nc(N[C@H]2C[C@@](C)(NC(C)=O)C2)nn2ccc(-c3ccn4nccc4c3)c12 [Compound 97, N-(cis-3-((4-Methoxy-5-(pyrazolo[1,5-a]pyridin-5-yl)pyrrolo[2,1-f][1,2,4]triazin-2-yl)amino)-1-methylcyclobutyl)acetamide] | 1.1 |
| CCOc1nc(NC2CC3(C2)CN(C(C)=O)C3)nn2ccc(-c3ccn4nccc4c3)c12 [Compound 99, 1-(6-((4-Ethoxy-5-(pyrazolo[1,5-a]pyridin-5-yl)pyrrolo[2,1-f][1,2,4]triazin-2-yl)amino)-2-azaspiro[3.3]heptan-2-yl)ethan-1-one] | 4.5 |
| CCn1nnc2ccc(-c3ccn4nc(N[C@H]5CCN(C6COC6)C[C@H]5F)nc(OC)c34)cc21 [Compound 646, 5-(1-Ethyl-1H-benzo[d][1,2,3]triazol-6-yl)-N-((3R,4S)-3-fluoro-1-(oxetan-3-yl)piperidin-4-yl)-4-methoxypyrrolo[2,1-f][1,2,4]triazin-2-amine] | 3.4 |
| COc1nc(N[C@H]2C[C@@](C)(NC(=O)C3(C#N)CC3)C2)nn2ccc(-c3ccc4ncnn4c3)c12 [Compound 562, N-((1s,3s)-3-((5-([1,2,4]Triazolo[1,5-a]pyridin-6-yl)-4-methoxypyrrolo[2,1-f][1,2,4]triazin-2-yl)amino)-1-methylcyclobutyl)-1-cyanocyclopropane-1-carboxamide] | 1.1 |
| C[C@]1(O)CC[C@H](Nc2nc(OC3COC3)c3c(-c4ccc5ncnn5c4)ccn3n2)CC1 [Compound 621, (1r,4r)-4-((5-([1,2,4]Triazolo[1,5-a]pyridin-6-yl)-4-(oxetan-3-yloxy)pyrrolo[2,1-f][1,2,4]triazin-2-yl)amino)-1-methylcyclohexan-1-ol] | 35.4 |
| COc1nc(N[C@H]2C[C@](C)(NC(C)=O)C2)nn2cc(F)c(-c3ccc4ncnn4c3)c12 [Compound 585, N-((1r,3r)-3-((5-([1,2,4]Triazolo[1,5-a]pyridin-6-yl)-6-fluoro-4-methoxypyrrolo[2,1-f][1,2,4]triazin-2-yl)amino)-1-methylcyclobutyl)acetamide] | 2.2 |
| COc1nc(N[C@@H]2CCN(C3COC3)C[C@@H]2F)nn2ccc(-c3ccc4nnn(CC(F)F)c4c3)c12 [Compound 761, 5-(1-(2,2-Difluoroethyl)-1H-benzo[d][1,2,3]triazol-6-yl)-N-((3S,4R)-3-fluoro-1-(oxetan-3-yl)piperidin-4-yl)-4-methoxypyrrolo[2,1-f][1,2,4]triazin-2-amine] | 1.7 |
| CNC(=O)c1cnn2ccc(-c3ccn4nc(N[C@H]5CC[C@@H](OC)CC5)nc(OC)c34)cc12 [Compound 399, 5-(4-Methoxy-2-((cis-4-methoxycyclohexyl)amino)pyrrolo[2,1-f][1,2,4]triazin-5-yl)-N-methylpyrazolo[1,5-a]pyridine-3-carboxamide] | 3.5 |
| COc1nc(NC2CCC3(CC2)COC3)nn2ccc(-c3ccc4nc(C)n(CCO)c4c3)c12 [Compound 174, 2-(6-(2-((2-Oxaspiro[3.5]nonan-7-yl)amino)-4-methoxypyrrolo[2,1-f][1,2,4]triazin-5-yl)-2-methyl-1H-benzo[d]imidazol-1-yl)ethan-1-ol] | 3 |
| COc1nc(NC2CCC3(CC2)COC3)nn2ccc(-c3ccc4nnn(CC(F)F)c4c3)c12 [Compound 801, 5-(1-(2,2-Difluoroethyl)-1H-benzo[d][1,2,3]triazol-6-yl)-4-methoxy-N-(2-oxaspiro[3.5]nonan-7-yl)pyrrolo[2,1-f][1,2,4]triazin-2-amine] | 3.2 |
| COc1nc(N[C@@H]2CN(C(C)=O)C[C@@H]2F)nn2ccc(-c3ccc4nnn(CCF)c4c3)c12 [Compound 660, 1-((3S,4R)-3-Fluoro-4-((5-(1-(2-fluoroethyl)-1H-benzo[d][1,2,3]triazol-6-yl)-4-methoxypyrrolo[2,1-f][1,2,4]triazin-2-yl)amino)pyrrolidin-1-yl)ethan-1-one] | < 0.2 |
| COc1nc(N[C@H]2C[C@](C)(NC(C)=O)C2)nn2ccc(-c3ccc4nnn(C)c4c3)c12 [Compound 206, N-(trans-3-((4-Methoxy-5-(1-methyl-1H-benzo[d][1,2,3]triazol-6-yl)pyrrolo[2,1-f][1,2,4]triazin-2-yl)amino)-1-methylcyclobutyl)acetamide] | 0.4 |
| COc1nc(N[C@H]2CCN(C3COC3)C[C@H]2F)nn2cc(F)c(-c3ccc4ncccc4c3)c12 [Compound 1059, 6-Fluoro-N-((3R,4S)-3-fluoro-1-(oxetan-3-yl)piperidin-4-yl)-4-methoxy-5-(quinolin-6-yl)pyrrolo[2,1-f][1,2,4]triazin-2-amine] | 1.9 |

Further lines, results first:

| IC50 [nM] | Structure (SMILES) |
| --- | --- |
| 2 | CCC(=O)N1CC[C@@H](Nc2nc(OC)c3c(-c4ccc5nnn(CC(F)F)c5c4)ccn3n2)[C@@H](F)C1 [Compound 772, 1-((3S,4R)-4-((5-(1-(2,2-Difluoroethyl)-1H-benzo[d][1,2,3]triazol-6-yl)-4-methoxypyrrolo[2,14][1,2,4]triazin-2-yl)amino)-3-fluoropiperidin-1-yl)propan-1-one] |
| 1.4 | COc1nc(N[C@@H]2CN(C)C[C@@H]2F)nn2ccc(-c3ccc4nccnc4c3)c12 [Compound 350, N-((3R,4S)-4-Fluoro-1-methylpyrrolidin-3-yl)-4-methoxy-5-(quinoxalin-6-yl)pyrrolo[2,1-f][1,2,4]triazin-2-amine] |
| 4.6 | COc1nc(N[C@H]2C[C@@](C)(O)C2)nn2ccc(-c3ccn4nccc4c3)c12 [Compound 7, cis-3-((4-Methoxy-5-(pyrazolo[1,5-a]pyridin-5-yl)pyrrolo[2,1-f][1,2,4]triazin-2-yl)amino)-1-methylcyclobutan-1-ol] |
| 5.6 | COc1nc(N[C@@H]2CCN(C)C[C@@H]2F)nn2ccc(-c3ccc4nccn4c3)c12 [Compound 67, N-((3S,4R)-3-Fluoro-1-methylpiperidin-4-yl)-5-(imidazo[1,2-a]pyridin-6-yl)-4-methoxypyrrolo[2,1-f][1,2,4]triazin-2-amine] |
| 19.9 | COc1nc(NC2CCC(F)(F)CC2)nn2ccc(-c3ccc4ncnn4c3)c12 [Compound 193, 5-([1,2,4]Triazolo[1,5-a]pyridin-6-yl)-N-(4,4-difluorocyclohexyl)-4-methoxypyrrolo[2,1-f][1,2,4]triazin-2-amine] |
| 9.2 | COc1nc(N[C@@H]2CCNC[C@@H]2F)nn2ccc(-c3ccn4nccc4c3)c12 [Compound 29] |
| 4 | CCN1CC[C@@H](Nc2nc(OC)c3c(-c4ccc5nccnc5c4)ccn3n2)C(F)(F)C1 [Compound 1095, (R)—N-(1-Ethyl-3,3-difluoropiperidin-4-yl)-4-methoxy-5-(quinoxalin-6-yl)pyrrolo[2,1-f][1,2,4]triazin-2-amine] |
| 4.4 | COc1nc(NC2CC3CCC(C2)O3)nn2ccc(-c3cnc4nccn4c3)c12 (stereo not drawn) [Compound 1150, N-(8-Oxabicyclo[3.2.1]octan-3-yl)-5-(imidazo[1,2-a]pyrimidin-6-yl)-4-methoxypyrrolo[2,1-f][1,2,4]triazin-2-amine] |
| 4.5 | COc1nc(N[C@@H]2CCOC[C@H]2F)nn2ccc(-c3cnc4nccn4c3)c12 [Compound 1149, N-((3S,4R)-3-Fluorotetrahydro-2H-pyran-4-yl)-5-(imidazo[1,2-a]pyrimidin-6-yl)-4-methoxypyrrolo[2,1-f][1,2,4]triazin-2-amine] |
| 2.2 | COc1nc(N[C@H]2CCN(C)C[C@H]2F)nn2ccc(-c3ccc4nc(C)n(CC(F)F)c4c3)c12 [Compound 127, 5-(1-(2,2-Difluoroethyl)-2-methyl-1H-benzo[d]imidazol-6-yl)-N-((3R,4S)-3-fluoro-1-methylpiperidin-4-yl)-4-methoxypyrrolo[2,1-f][1,2,4]triazin-2-amine] |
| 1.6 | COc1nc(N[C@@H]2CCN(C3COC3)CC2(F)F)nn2ccc(-c3cc(F)c4nc(C)n(C(C)C)c4c3)c12 [Compound 551, (R)—N-(3,3-Difluoro-1-(oxetan-3-yl)piperidin-4-yl)-5-(4-fluoro-1-isopropyl-2-methyl-1H-benzo[d]imidazol-6-yl)-4-methoxypyrrolo[2,1-f][1,2,4]triazin-2-amine] |
| 4.9 | COc1nc(N[C@@H]2CCN(C)CC2(F)F)nn2ccc(-c3cc(F)c4nccn4c3)c12 [Compound 434, (R)—N-(3,3-Difluoro-1-methylpiperidin-4-yl)-5-(8-fluoroimidazo[1,2-a]pyridin-6-yl)-4-methoxypyrrolo[2,1-f][1,2,4]triazin-2-amine] |
| 1.6 | COc1nc(NC2CCC3(CC2)CN(C(C)=O)C3)nn2ccc(-c3ccn4nccc4c3)c12 [Compound 40, 1-(7-((4-Methoxy-5-(pyrazolo[1,5-a]pyridin-5-yl)pyrrolo[2,1-f][1,2,4]triazin-2-yl)amino)-2-azaspiro[3.5]nonan-2-yl)ethan-1-one] |
| 5.1 | COc1nc(N[C@H]2CCN(C3COC3)C[C@H]2F)nn2ccc(-c3cnc4nccn4c3)c12 [Compound 270, N-((3R,4S)-3-Fluoro-1-(oxetan-3-yl)piperidin-4-yl)-5-(imidazo[1,2-a]pyrimidin-6-yl)-4-methoxypyrrolo[2,1-f][1,2,4]triazin-2-amine] |
| 1.4 | COc1nc(N[C@H]2CCN(C3COC3)C[C@H]2F)nn2ccc(-c3ccc4ncn(CC(F)F)c4c3)c12 [Compound 1141, 5-(1-(2,2-Difluoroethyl)-1H-benzo[d]imidazol-6-yl)-N-((3R,4S)-3-fluoro-1-(oxetan-3-yl)piperidin-4-yl)-4-methoxypyrrolo[2,1-f][1,2,4]triazin-2-amine] |
| 7.7 | COc1nc(N[C@@H]2CCN(C)C[C@@H]2F)nn2ccc(-c3ccn4nccc4c3)c12 [Compound 31, N-((3S,4R)-3-fluoro-1-methylpiperidin-4-yl)-4-methoxy-5-(pyrazolo[1,5-a]pyridin-5-yl)pyrrolo[2,1-f][1,2,4]triazin-2-amine] |

From patent US20240002391A1, “4-ALKOXYPYRROLO[2,1-F][1,2,4]TRIAZINES AND PREPARATION AND USES THEREOF” (BioSplice Therapeutics, Inc., priority 2022, published 2024)
